The target in experiment [1] is T1, Sterol O-acyltransferase 1 (Rattus norvegicus, UniProt O70536).
T1 sequence (O70536 whole entry): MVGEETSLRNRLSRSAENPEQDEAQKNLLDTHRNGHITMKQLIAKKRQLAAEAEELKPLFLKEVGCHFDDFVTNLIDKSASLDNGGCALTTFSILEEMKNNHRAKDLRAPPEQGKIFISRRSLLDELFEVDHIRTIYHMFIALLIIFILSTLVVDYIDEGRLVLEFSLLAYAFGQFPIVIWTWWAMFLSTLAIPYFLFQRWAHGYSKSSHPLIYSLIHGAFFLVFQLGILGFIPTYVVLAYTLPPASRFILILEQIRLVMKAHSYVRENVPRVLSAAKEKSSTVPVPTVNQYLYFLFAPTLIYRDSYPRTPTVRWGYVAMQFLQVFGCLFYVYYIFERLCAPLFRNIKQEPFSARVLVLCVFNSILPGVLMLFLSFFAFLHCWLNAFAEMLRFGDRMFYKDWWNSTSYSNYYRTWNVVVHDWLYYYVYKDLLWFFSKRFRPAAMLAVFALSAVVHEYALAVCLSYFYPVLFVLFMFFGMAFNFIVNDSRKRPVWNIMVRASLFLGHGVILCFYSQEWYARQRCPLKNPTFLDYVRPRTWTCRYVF
As to the kind of experiment: Liver ACAT inhibitory activity was determined in vitro using [1-14C]oleolyl-CoA and microsomes isolated from the livers of cholesterol fed rats. More on the design: species or system Microsome.

The test system of another experiment is Rattus norvegicus. Nature of the experiment: Total serum cholesterol level was measured in rats after administering single high-fat, high cholesterol meal. Type of experiment: functional.
Experiment [2] deals with T1, Sterol O-acyltransferase 1. Nature of the experiment: Liver Acyl coenzyme A:cholesterol acyltransferase inhibitory activity was determined in vitro using [1-14C]oleolyl-CoA and microsomes isolated from the livers of cholesterol fed rats. More on the design: species or system Microsome.
Experiment [3] deals with T2, Sterol O-acyltransferase 1 (Mus musculus, UniProt Q61263).
T2 sequence (Q61263 whole entry): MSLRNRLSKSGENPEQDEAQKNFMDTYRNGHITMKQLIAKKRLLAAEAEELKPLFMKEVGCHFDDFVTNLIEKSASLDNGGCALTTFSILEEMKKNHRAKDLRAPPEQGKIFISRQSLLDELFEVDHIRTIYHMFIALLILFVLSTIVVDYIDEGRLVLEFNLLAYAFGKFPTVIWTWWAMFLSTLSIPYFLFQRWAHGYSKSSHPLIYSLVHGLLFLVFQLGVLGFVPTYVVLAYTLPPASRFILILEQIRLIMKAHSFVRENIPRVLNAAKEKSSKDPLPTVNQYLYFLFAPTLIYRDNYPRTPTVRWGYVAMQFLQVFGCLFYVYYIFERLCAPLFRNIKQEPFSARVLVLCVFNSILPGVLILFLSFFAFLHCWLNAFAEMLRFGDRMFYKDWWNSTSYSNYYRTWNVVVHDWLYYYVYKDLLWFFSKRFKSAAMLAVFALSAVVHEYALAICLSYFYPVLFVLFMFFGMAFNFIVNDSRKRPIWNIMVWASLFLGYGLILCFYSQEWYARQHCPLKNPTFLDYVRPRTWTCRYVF
As to the kind of experiment: Compound was tested for its ability to penetrate the cell wall and inhibit macrophage ACAT in cell culture using murine IC-21 macrophages (MAI). The format is functional.

In experiment [4] the test system is Oryctolagus cuniculus. Nature of the experiment: Compound was tested for systemic bioactivity in plasma, drawn four hours post dose from cholesterol -fed rabbit, with rat liver microsomes (ABIO) at a dose of 22 mg/kg. Type of experiment: functional. Conditions: 4 h; call rule not given here.
In experiment [5] the test system is Oryctolagus cuniculus. As to the kind of experiment: Compound was tested for systemic bioactivity in plasma, drawn four hours post dose from cholesterol -fed rabbit, with rat liver microsomes (ABIO) at a dose of 24 mg/kg. Type of experiment: functional. Conditions: 4 h.
Experiment [6] deals with T2, Sterol O-acyltransferase 1. As to the kind of experiment: Compound was tested for its ability to penetrate the cell wall and inhibit macrophage ACAT in cell culture using murine IC-21 macrophages (MAI) at 0.1 uM; not active. Type of experiment: functional.
The subject of experiment [7] is Oryctolagus cuniculus. As to the kind of experiment: Compound was tested for percent change in total serum cholesterol relative to progression control in an injured cholesterol-fed rabbit (ICFR) model at a dose of 5 mg/kg. Type of experiment: functional.
Experiment [8] relates to Oryctolagus cuniculus. Nature of the experiment: Anti-atherosclerosis activity was determined by measuring the thoracic aortic lesion coverage in an injured cholesterol-fed rabbit (ICFR) model at a dose of 25 mg/kg. The format is functional, Aorta.
In experiment [9] the test system is Oryctolagus cuniculus. As to the kind of experiment: Anti-atherosclerosis activity was determined by measuring the thoracic aortic lesion coverage in an injured cholesterol-fed rabbit (ICFR) model at a dose of 5 mg/kg. The format is functional, Aorta.
In experiment [10] the test system is Oryctolagus cuniculus. As to the kind of experiment: Compound was tested for percent change in total serum cholesterol relative to progression control in an injured cholesterol-fed rabbit (ICFR) model at a dose of 25 mg/kg. The format is functional.
In experiment [11] the test system is Oryctolagus cuniculus. As to the kind of experiment: Compound was tested for percent change in plasma triglycerides relative to progression control in an injured cholesterol-fed rabbit (ICFR) model at a dose of 25 mg/kg(p<0.10). Type of experiment: functional.
Experiment [12] relates to Oryctolagus cuniculus. Nature of the experiment: Compound was tested for percent change in plasma triglycerides relative to progression control in an injured cholesterol-fed rabbit (ICFR) model at a dose of 5 mg/kg. The format is functional.
Experiment [13] deals with Oryctolagus cuniculus. Nature of the experiment: Compound was tested for systemic bioactivity in plasma, drawn four hours post dose from cholesterol -fed rabbit, with rat liver microsomes (ABIO) at a dose of 25 mg/kg. Type of experiment: functional. Particulars: 4 h.
The test system of experiment [14] is Oryctolagus cuniculus. As to the kind of experiment: Compound was tested for systemic bioactivity in plasma, drawn four hours post dose from cholesterol -fed rabbit, with rat liver microsomes (ABIO) at a dose of 5 mg/kg. Type of experiment: functional. Conditions: 4 h.
For experiment [15], the system named is Oryctolagus cuniculus. As to the kind of experiment: Compound was tested for percent change in plasma triglycerides relative to progression control in an injured cholesterol-fed rabbit (ICFR) model at a dose of 25 mg/kg. Type of experiment: functional.
Experiment [16] concerns Oryctolagus cuniculus. Nature of the experiment: Anti-atherosclerosis activity was determined by measuring the thoracic aortic lesion coverage in an injured cholesterol-fed rabbit (ICFR) at a dose of 25 mg/kg. Type of experiment: functional, Aorta.

In [1], `CCCCCn1nnc(N(C(=O)Nc2c(OC)cc(OC)cc2OC)c2ccccc2)n1` displayed a half-inhibitory concentration (IC50) of 450 nM. Besides, the “Delta TC” value with Rattus norvegicus is -43%.

On to `COc1cc(OC)c(NC(=O)N(c2ccccc2)c2nnn(CCCCCCCCCC(C)C)n2)c(OC)c1`, for which the concentration for half-maximal inhibition (IC50) in experiment [2] was determined as 40 nM.

In turn, `CCCCCCCCCCCCn1nnc(N(CCCCCCC)C(=O)Nc2c(OC)cc(OC)cc2OC)n1` registered a half-inhibitory concentration (IC50) in experiment [2] of 290 nM. In the experiment with Rattus norvegicus, the “Delta TC” value is -20%.

Take `CC(C)c1cccc(C(C)C)c1NC(=O)N(c1ccccc1)c1nnn(CCCCCCCCOC2CCCCO2)n1` (stereo not drawn): in [2], the IC50 worked out at 16 nM. The “Delta TC” value with Rattus norvegicus is recorded as 42%.

With `COc1cc(OC)c(NC(=O)N(c2ccccc2)c2nnn(CCCCCCCCOC3CCCCO3)n2)c(OC)c1` (stereo not drawn), half-maximal inhibition in [2] (IC50) required 41 nM. Besides, the “Delta TC” value with Rattus norvegicus was -50%.

With `CCCCCCCCCCCCCCn1nnc(N(C(=O)Nc2c(OC)cc(OC)cc2OC)c2ccccc2)n1`, in experiment [2], half-maximal inhibition (IC50) was put at 71 nM. In addition, in the experiment with Rattus norvegicus, the “Delta TC” value is -22%.

In experiment [2], `CCCCCCCCCCCCn1nnc(N(Cc2ccccc2)C(=O)Nc2c(OC)cc(OC)cc2OC)n1` showed an IC50 of 35 nM.

As to `CCCCCCCCCCCCn1nnc(N(C(=O)Nc2c(OC)cc(OC)cc2OC)c2ccccc2)n1`, the IC50 was determined as 61 nM in [1] and 890 nM in experiment [3]. The same compound registered an inhibition in vivo at 22 mg/kg in the experiment with Oryctolagus cuniculus [4] of 58%. For the same compound, in the experiment on Rattus norvegicus, the “Delta TC” value came to 74%.

`CCCCCCCCCCCCn1nnc(N(C(=O)Nc2c(C(C)C)cccc2C(C)C)C2CCCCC2)n1`: the half-inhibitory concentration (IC50) was found to be 31 nM in [2] and 3100 nM in [3]. In the experiment on Oryctolagus cuniculus [5], this compound yielded an inhibition in vivo at 24 mg/kg of 77%. Moreover, in the experiment with Rattus norvegicus, the “Delta TC” value was found to be 10%.

With `CCCCCCCCCCCCn1nnc(N(C(=O)Nc2c(OC)cc(OC)cc2OC)C2CCCCC2)n1`, the figures for the IC50 in experiment [1] and in [6] were 57 nM and “Not Active”, respectively. The “Delta TC” value in the experiment on Oryctolagus cuniculus [7] worked out at 22%; in the experiment on Oryctolagus cuniculus [10] it was 21%; with Rattus norvegicus, 67%. For the same compound, the Lesion coverage in the experiment on Oryctolagus cuniculus [8] was determined as 44%; in the experiment on Oryctolagus cuniculus [9] it was 49%. The results for the “Delta TG” value with Oryctolagus cuniculus [11] and in the experiment on Oryctolagus cuniculus [12] were 68% and 4%, respectively. This compound also had an inhibition in vivo at 25 mg/kg in the experiment with Oryctolagus cuniculus [13] of 58%. This compound also had an inhibition in vivo at 5 mg/kg in the experiment on Oryctolagus cuniculus [14] of 0%.

With `CCCCCCCCCCCCn1nnc(N(C(=O)Nc2c(C(C)C)cccc2C(C)C)c2ccccc2)n1`, half-maximal inhibition in experiment [3] (IC50) required 240 nM. The inhibition in vivo at 22 mg/kg in the experiment with Oryctolagus cuniculus [4] was 79%. For the same compound, in the experiment on Rattus norvegicus, the “Delta TC” value came to 52%.

With `CCCCCCCCCCC(C)(C)C(=O)Nc1c(OC)cc(OC)cc1OC` [CL-976], the “Delta TG” value in the experiment on Oryctolagus cuniculus [15] is listed as -7%. In the experiment on Oryctolagus cuniculus [16], the Lesion coverage is listed as 39%. In the experiment with Oryctolagus cuniculus [10], the “Delta TC” value is recorded as -24%. The same compound showed an inhibition in vivo at 25 mg/kg in the experiment with Oryctolagus cuniculus [13] of 73%.

For the origin of these results see ChEMBL document CHEMBL1151014, “Tetrazole-substituted ureas as inhibitors of acyl-CoA:cholesterol O-acyltransferase (ACAT). A novel preparation of ureas from weakly nucleophilic amines” (Bioorg Med Chem Lett, 1996).
